“And” between values parts separate entries of the source, which are not always exact repeats. Identical values can stand only once. Inconclusive results and toxic doses are left out. The calls were made as follows: active = survival T/C of 150% or more; inactive = T/C below 125% in these data.
System: BDF1 mice, P388 leukemia ip, median survival T/C
Test: NCI In Vivo Anticancer Drug Screen. Data for tumor model P388 Leukemia (intraperitoneal) in B6D2F1 (BDF1) mice
Conditions: endpoint: median survival time, higher = longer survival
How it was run: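 Each value expresses how treatment altered survival: treated-mouse outcome over vehicle-mouse outcome, both groups bearing the transplanted tumour.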

[1] = dose: 200.0 mg/kg/injection, schedule: Q01DX009 (ip), vehicle: saline with Tween-80
[2] = dose: 100.0 mg/kg/injection, schedule: Q01DX009 (ip), vehicle: Klucel (hydroxypropylcellulose) (HPC)
[3] = dose: 100.0 mg/kg/injection, schedule: Q04DX003 (ip), vehicle: Klucel (hydroxypropylcellulose) (HPC)
[4] = dose: 200.0 mg/kg/injection, schedule: Q01DX009 (ip), vehicle: Klucel (hydroxypropylcellulose) (HPC)
[5] = dose: 200.0 mg/kg/injection, schedule: Q04DX003 (ip), vehicle: Klucel (hydroxypropylcellulose) (HPC)
[6] = dose: 400.0 mg/kg/injection, schedule: Q01DX009 (ip), vehicle: Klucel (hydroxypropylcellulose) (HPC)
[7] = dose: 100.0 mg/kg/injection, schedule: Q04DX003 (ip), vehicle: saline with Tween-80
[8] = dose: 200.0 mg/kg/injection, schedule: Q04DX003 (ip), vehicle: saline with Tween-80
[9] = dose: 400.0 mg/kg/injection, schedule: Q04DX003 (ip), vehicle: saline with Tween-80
[10] = dose: 50.0 mg/kg/injection, schedule: Q01DX009 (ip), vehicle: saline with Tween-80
[11] = dose: 100.0 mg/kg/injection, schedule: Q01DX009 (ip), vehicle: saline with Tween-80

Measured: T/C

O=C(CCNOCc1ccccc1)OCc1ccccc1
inactive: dose: 12.5 mg/kg/injection, schedule: Q01DX009 (ip), vehicle: other 101 % of control | dose: 25.0 mg/kg/injection, schedule: Q01DX009 (ip), vehicle: other 100 % of control | dose: 50.0 mg/kg/injection, schedule: Q01DX009 (ip), vehicle: other 101 % of control | dose: 200.0 mg/kg/injection, schedule: Q01DX009 (ip), vehicle: other 89 % of control

Cc1n[nH]c2ccc([N+](=O)[O-])cc2c1=O
inactive: [1] 87 % of control

O.O.O=c1[nH]cc(CO)c(=O)[nH]1.[NH2-].[NH2-].[Pt+2]
active: dose: 12.5 mg/kg/injection, schedule: Q01DX009 (ip), vehicle: Klucel (hydroxypropylcellulose) (HPC) 209 % of control | dose: 25.0 mg/kg/injection, schedule: Q01DX009 (ip), vehicle: Klucel (hydroxypropylcellulose) (HPC) 248 % of control and 211 % of control
inactive: dose: 3.12 mg/kg/injection, schedule: Q01DX009 (ip), vehicle: Klucel (hydroxypropylcellulose) (HPC) 99 % of control | dose: 6.25 mg/kg/injection, schedule: Q01DX009 (ip), vehicle: Klucel (hydroxypropylcellulose) (HPC) 88 % of control | dose: 50.0 mg/kg/injection, schedule: Q01DX009 (ip), vehicle: Klucel (hydroxypropylcellulose) (HPC) 90 % of control

CCOC(=O)c1ccc(Oc2ncc([N+](=O)[O-])s2)cc1
inactive: dose: 1.85 mg/kg/injection, schedule: Q01DX009 (ip), vehicle: saline 90 % of control | dose: 3.71 mg/kg/injection, schedule: Q01DX009 (ip), vehicle: saline 100 % of control | dose: 7.42 mg/kg/injection, schedule: Q01DX009 (ip), vehicle: saline 90 % of control | dose: 10.0 mg/kg/injection, schedule: Q01DX009 (ip), vehicle: saline with Tween-80 90 % of control | dose: 16.0 mg/kg/injection, schedule: Q01DX009 (ip), vehicle: saline with Tween-80 86 % of control | dose: 24.0 mg/kg/injection, schedule: Q01DX009 (ip), vehicle: saline with Tween-80 95 % of control

Oc1ccc2ccccc2c1N=Nc1ccccc1
inactive: [2] 87 % of control | [3] 109 % of control | [4] 104 % of control | [5] 104 % of control | [6] 91 % of control | dose: 400.0 mg/kg/injection, schedule: Q04DX003 (ip), vehicle: Klucel (hydroxypropylcellulose) (HPC) 104 % of control

CCOC(=O)C(O)(NC(=O)N/N=C/c1ccccc1)C(=O)OCC
inactive: [7] 104 % of control | [8] 112 % of control | [9] 91 % of control

CCC(C)C(NC(=O)OCc1ccccc1)C(=O)ON1C(=O)CCC1=O (stereo unspecified)
inactive: [7] 118 % of control | [9] 109 % of control

COC(=O)Nc1cccc(NC(=O)C(=O)O)c1
inactive: dose: 50.0 mg/kg/injection, schedule: Q04DX003 (ip), vehicle: saline with Tween-80 100 % of control | [7] 100 % of control

Cc1ccccc1C(=O)NCC(=O)O
inactive: [7] 104 % of control | [8] 100 % of control | [9] 100 % of control

NC(=NCCCC(NC(=O)c1ccccc1)C(=O)O)NC(=O)c1ccccc1 (stereo unspecified)
inactive: [10] 103 % of control | [11] 120 % of control | [1] 118 % of control

NS(=O)(=O)c1cc([N+](=O)[O-])ccc1Cl
inactive: [3] 100 % of control | [5] 108 % of control

Cc1ccc(C(=O)C2CC2)c(C)c1
inactive: [10] 92 % of control | [11] 103 % of control | [7] 112 % of control | [1] 100 % of control | [8] 120 % of control | [9] 108 % of control

CC(=N/NC(=S)NCCN1CCCCC1)/C(C)=N\NC(=S)NCCN1CCCCC1
inactive: dose: 0.78 mg/kg/injection, schedule: Q01DX009 (ip), vehicle: saline 90 % of control | dose: 1.56 mg/kg/injection, schedule: Q01DX009 (ip), vehicle: saline 98 % of control | dose: 3.13 mg/kg/injection, schedule: Q01DX009 (ip), vehicle: saline 98 % of control and 121 % of control | dose: 6.25 mg/kg/injection, schedule: Q01DX009 (ip), vehicle: saline 105 % of control and 109 % of control | dose: 12.5 mg/kg/injection, schedule: Q01DX009 (ip), vehicle: saline 103 % of control

CC(=O)N(/N=C/c1cc(C=O)n(-c2ccccc2)n1)c1ccccc1
inactive: [10] 86 % of control | [11] 90 % of control | [1] 105 % of control

CC12CCC(CC1)C(C)(C)O2
inactive: dose: 25.0 mg/kg/injection, schedule: Q01DX009 (ip), vehicle: saline 106 % of control | dose: 50.0 mg/kg/injection, schedule: Q01DX009 (ip), vehicle: saline 117 % of control | dose: 100.0 mg/kg/injection, schedule: Q01DX009 (ip), vehicle: saline 106 % of control | dose: 200.0 mg/kg/injection, schedule: Q01DX009 (ip), vehicle: saline 107 % of control

CCCCN(CCCC)CC(O)c1ccc2cc(Cl)cc(Cl)c2n1 (stereo unspecified)
inactive: dose: 6.25 mg/kg/injection, schedule: Q04DX003 (ip), vehicle: saline with Tween-80 110 % of control | dose: 12.5 mg/kg/injection, schedule: Q04DX003 (ip), vehicle: saline with Tween-80 115 % of control | dose: 25.0 mg/kg/injection, schedule: Q04DX003 (ip), vehicle: saline with Tween-80 110 % of control

CCCCCCCCCCCC1CCCC(C)N1 (stereo unspecified)
inactive: dose: 100.0 mg/kg/injection, schedule: Q04DX003 (ip), vehicle: saline 100 % of control | dose: 200.0 mg/kg/injection, schedule: Q04DX003 (ip), vehicle: saline 95 % of control | dose: 400.0 mg/kg/injection, schedule: Q04DX003 (ip), vehicle: saline 91 % of control and 95 % of control

CCOC(=O)CCOc1ccccc1N(CCCl)CCCl
inactive: dose: 0.66 mg/kg/injection, schedule: Q04DX003 (ip), vehicle: other 100 % of control | dose: 1.0 mg/kg/injection, schedule: Q04DX003 (ip), vehicle: other 104 % of control | dose: 1.5 mg/kg/injection, schedule: Q04DX003 (ip), vehicle: other 104 % of control | dose: 2.25 mg/kg/injection, schedule: Q04DX003 (ip), vehicle: other 114 % of control | dose: 3.0 mg/kg/injection, schedule: Q04DX003 (ip), vehicle: saline sonified 100 % of control | dose: 6.0 mg/kg/injection, schedule: Q04DX003 (ip), vehicle: saline sonified 100 % of control | dose: 9.0 mg/kg/injection, schedule: Q04DX003 (ip), vehicle: saline sonified 100 % of control
active: dose: 1.56 mg/kg/injection, schedule: Q04DX003 (ip), vehicle: other 154 % of control | dose: 3.13 mg/kg/injection, schedule: Q04DX003 (ip), vehicle: other 181 % of control | dose: 3.5 mg/kg/injection, schedule: Q04DX003 (ip), vehicle: saline with Tween-80 172 % of control | dose: 5.2 mg/kg/injection, schedule: Q04DX003 (ip), vehicle: saline with Tween-80 190 % of control | dose: 11.0 mg/kg/injection, schedule: Q04DX003 (ip), vehicle: other 227 % of control | dose: 12.0 mg/kg/injection, schedule: Q01DX009 (ip), vehicle: saline 152 % of control | dose: 12.0 mg/kg/injection, schedule: Q04DX003 (ip), vehicle: saline 156 % of control | dose: 12.5 mg/kg/injection, schedule: Q04DX003 (ip), vehicle: other 222 % of control | dose: 16.5 mg/kg/injection, schedule: Q04DX003 (ip), vehicle: other 294 % of control | dose: 25.0 mg/kg/injection, schedule: Q04DX003 (ip), vehicle: other 150 % of control | dose: 25.0 mg/kg/injection, schedule: Q04DX003 (ip), vehicle: saline sonified 159 % of control | dose: 50.0 mg/kg/injection, schedule: Q04DX003 (ip), vehicle: saline sonified 159 % of control | dose: 100.0 mg/kg/injection, schedule: Q04DX003 (ip), vehicle: saline sonified 168 % of control

Nc1ncnc2c1ncn2C1(CO)OC(CO)C(O)C1O (stereo unspecified)
inactive: [2] 106 % of control | [4] 115 % of control | [6] 103 % of control

CC(C)(C)CSc1ccccc1SCC(C)(C)C
inactive: dose: 50.0 mg/kg/injection, schedule: Q04DX002 (ip), vehicle: saline with Tween-80 107 % of control | dose: 100.0 mg/kg/injection, schedule: Q04DX002 (ip), vehicle: saline with Tween-80 98 % of control | dose: 200.0 mg/kg/injection, schedule: Q04DX002 (ip), vehicle: saline with Tween-80 93 % of control

Nc1nc2ccccc2c(=O)n1C(=O)c1ccccc1
inactive: [7] 93 % of control | [8] 94 % of control | [9] 116 % of control

CNC(=O)OCc1c(COC(=O)NC)c(-c2ccc(F)cc2)n2c1CCC2
inactive: dose: 1.56 mg/kg/injection, schedule: Q01DX009 (ip), vehicle: Klucel (hydroxypropylcellulose) (HPC) 122 % of control

Source: PubChem BioAssay AID328 (DTP/NCI, 2004)
